Measured values taken from US9403840B2, “(Poly) aminoacetamide derivatives of epipodophyllotoxin their process of preparation and their applications in therapeutics as anticancer agents” (PIERRE FABRE MEDICAMENT, priority 2004, dated 2016).
Converted amounts (≈) assume the structure as drawn. “And” between values parts separate entries of the source, which are not always exact repeats. Equal entries are not always repeated. Structures can show the parent of a compound that is named as a salt.

Key:
[1] = test system: cells of the A549 human line (non-small-cell lung cancer); assay: Cytotoxicity test: inhibition of growth of A549 cells (ATP-Lite luminescence); assay type: cell-based; details: 48 hours incubation
Description: The test used is the inhibition of growth of cells of the A549 human line (non-small-cell lung cancer):
The A549 tumour cells are seeded in a 96-well plate in RPMI 1640 medium without phenol red (Seromed) to which 5% of foetal calf serum is added (100 μl/well, 125×10^4 cells/ml). After incubating at 37° C. for 24 hours in an incubator comprising 5% CO2, the medium is replaced with that comprising the test compound, after which the plates are incubated for an additional 48 hours. Cell survival is evaluated by measuring the luminescence after release of ATP into the medium using the cell lysis, luciferase and luciferin solutions present in the ATP-Lite-M™ kit as is recommended by the manufacturer (Packard, Rungis, France). Each experimental condition was tested at least three times as six identical copies. The results, expressed as IC50 (M), are collated in Table I and show the cytotoxicity of the compounds.

[2] = test system: DNA in A549 cells; assay: Comets test for detection of breakages of the DNA in cellulo; assay type: cell-based, human; details: 1 hour with 10 μM compound
Description: b) Test for Detection of Breakages of the DNA in Cellulo:
The comets test is used. The breakages of the DNA are detected in the A549 cells after incubating for 1 hour with 10 μM of each of the test compounds. […] For each compound, twenty-five cells are analysed and the mean Tail Moment (TM) is calculated using Komet software (Kinetic Imaging, UK).

[3] = Solubility in water of the hydrochloride; assay type: physicochemical; details: water-soluble hydrochloride
Description: The compounds of the present invention have a solubility in water which makes possible a form of administration by infusion, by injection or by the oral route. They are provided in the form of their water-soluble hydrochloride, the solubility values of which are collated in Table II.

[4] = test system: P388 murine leukaemia; assay: P388 experimental tumour model (survival); assay type: in vivo, mouse; details: CD2F1 mice, P388 i.v. day 0, single intraperitoneal injection day 1; optimum dose (mg/kg) in brackets
Description: (§1) The model used is P388 murine leukaemia (Tumor Models in Cancer Research., Teicher, B. A. ed., Humana Press Inc., Totowa, N.J., pp. 23-40, 2002), which is maintained by successive intraperitoneal transplantations in DBA/2 mice (DBA/2JIco, Charles River), as was described in prior art documents (Classic in vivo cancer models: Three examples of mouse models used in experimental therapeutics. Current Protocols in Pharmacology Unit 5.24: 5.24.1-5.24.16, 2001).
The experiment is carried out according to a protocol already described in prior art documents (Cancer Chemother. Pharmacol., 1998, 41, 437-447). This consists in implanting 10^6 cells of P388 leukaemia per mouse into C2DF1 hybrid mice (CD2F1/CrlBR, Charles River, St Aubin-les-Elbeuf, France) intravenously on day zero. After randomizing the animals in the treatment and control cages, the compounds to be evaluated are administered in a single injection intraperitoneally the day after the tumour graft, on day 1. The animals are subsequently monitored every day, weighed twice weekly and any clinical reaction is recorded. The survival is the parameter for evaluation of the antitumour activity. The increase in survival is defined by the T/Csurvival ratio (%), corresponding to: (Median of survival of the treated group/Median of survival of the control group)×100. A T/Csurvival ratio is calculated for each dose administered and the greatest value obtained represents the maximum increase in survival achieved (maximum activity), which is defined by the optimum T/Csurvival ratio. The results are illustrated in Table II, in which the optimum T/Csurvival values appear. […] Specifically, according to the criteria of the NCI (National Cancer Institute), a T/Csurvival value is regarded as significant if it is at least greater than 120% (Semin. Oncol., 1981, 8, 349-361). The relative loss in body weight of the animals, associated with the optimum activity of the compounds, is much less than the toxicity threshold, according to the criteria of the NCI (Ann. Oncol., 1994, 5, 415-422).

[5] = test system: B16 melanoma; assay: B16 experimental tumour model (tumour volume); assay type: in vivo, mouse; details: C57BL/6 mice, s.c. B16, intraperitoneal on days 3, 5, 7 and 10; dose (mg/kg) in brackets
Description: as §1, with “the B16 melanoma” for “P388 murine leukaemia”, “subcutaneous” for “intraperitoneal”, “C57BL/6” for “DBA/2”, “(C57BL/6 NCrlBR,” for “(DBA/2JIco,”, “River, St Aubin-les-Elbeuf, France),” for “River),”, “above” for “in prior art documents”
The experiment is carried out according to a protocol already described above. B16 tumour tissue is ground and homogenized in a 0.9% sterile sodium chloride solution using a Dounce homogenizer and then C57BLJ6 mice are inoculated subcutaneously into the flank with 0.5 ml of this 1 g/ml preparation on day zero. After randomizing the animals in the treatment and control cages, the compounds to be evaluated are administered intraperitoneally on days 3, 5, 7 and 10 after the grafting of the tumour. The animals are subsequently monitored every day, weighed twice weekly and any clinical reaction is recorded. The size of the tumour is measured three times weekly during the experiment. The tumour volume is calculated and the activity of the compounds on the size of the tumour is defined by the T/Cvolume ratio (%), corresponding to (Median tumour volume of the treated group/Median tumour volume of the control group)×100. […]

[6] = test system: MX-1 human mammary carcinoma; assay: MX-1 experimental tumour model (tumour volume); assay type: in vivo, mouse
Description: The model used is a human mammary carcinoma (Developmental Therapeutics Program, Division of Cancer Treatment, National Cancer Institute, In vivo Cancer Models 1976-1982. NIH Publication No. 84 2635, Washington D.C.: United States Government Printing Office, 1984), which is maintained by successive subcutaneous transplantations in Swiss Nude mice (Ico: Swiss-nu/nu, Iffa Credo, L'Arbresle, France), as was described above (Classic in vivo cancer models: Three examples of mouse models used in experimental therapeutics. Current Protocols in Pharmacology Unit 5.24: 5.24.1-5.24.16, 2001).
The experiment is carried out according to a protocol already described above (Cancer Chemother. Pharmacol., 1998, 41, 437-447). […] After randomizing the animals in their treatment and control cages, the compounds to be evaluated are administered intraperitoneally on day 7, 9, 11, 14, 16 and 18 after the grafting of the tumour. The animals are subsequently monitored every day, weighed twice weekly and any clinical reaction is recorded. The size of the tumour is measured three times weekly during the experiment. The tumour volume is calculated and the activity of the compounds on the size of the tumour is defined by the T/Cvolume ratio (%), corresponding to (Median tumour volume of the treated group/Median tumour volume of the control group)×100.

| melting point [°C] | Compound | IC50 ([1]; Homo sapiens) [nM] | TM (mean Tail Moment with respect to the TM of etoposide, taken to be unity) [2] | P388 Model Optimum T/Csurvival (%) [4] | also measured |
| --- | --- | --- | --- | --- | --- |
| 219 | COc1cc(C2c3cc4c(cc3C(NC(=O)CNCCCN)C3COC(=O)C23)OCO4)cc(OC)c1O (stereo not drawn) (as salt: hydrochloride) | – | – | – | – |
| 255 | COc1cc(C2c3cc4c(cc3C(NC(=O)CNCCCNCCCCN)C3COC(=O)C23)OCO4)cc(OC)c1O (stereo not drawn) (as salt: hydrochloride) [Example 31, 2-[3-(4-aminobutylamino)propylamino]-N-[9-(4-hydroxy-3,5-dimethoxyphenyl)-8-oxo-5,5a,6,8,8a,9-hexahydrofuro[3′,4′:6,7]naphtho[2,3-d][1,3]dioxol-5-yl]acetamide] | – | – | – | – |
| – | COc1cc(C2c3cc4c(cc3C(NC(=O)CN)C3COC(=O)C23)OCO4)cc(OC)c1O (stereo not drawn) [Example 22, 2-amino-N-[9-(4-hydroxy-3,5-dimethoxyphenyl)-8-oxo-5,5a,6,8,8a,9-hexahydrofuro[3′,4′:6,7]naphtho[2,3-d][1,3]dioxol-5-yl]acetamide] | 1000 | 3.89 | – | – |
| 269 to 270 | COc1cc(C2c3cc4c(cc3C(NC(=O)CN3CCCCC3)C3COC(=O)C23)OCO4)cc(OC)c1O (stereo not drawn) (as salt: hydrochloride) | – | – | – | – |
| – | CCC1=C[C@@H]2CN(C1)Cc1c([nH]c3ccccc13)[C@@](C(=O)OC)(c1cc3c(cc1OC)N(C)[C@H]1[C@@](O)(C(=O)OC)[C@H](OC(C)=O)[C@]4(CC)C=CCN5CC[C@]31[C@@H]54)C2 [Vinorelbine, reference compound] | 3.7 | 0 | – | – |
| 236 | COc1cc(C2c3cc4c(cc3C(NC(=O)CNCCN)C3COC(=O)C23)OCO4)cc(OC)c1O (stereo not drawn) (as salt: hydrochloride) | – | – | – | – |
| 199 | COc1cc(C2c3cc4c(cc3C(NC(=O)CNCCCCNCCCN)C3COC(=O)C23)OCO4)cc(OC)c1O (stereo not drawn) (as salt: hydrochloride) | – | – | – | – |
| – | COc1cc(C2c3cc4c(cc3C(NC(=O)CNCCCCN)C3COC(=O)C23)OCO4)cc(OC)c1O (stereo not drawn) [Example 25, 2-(4-aminobutylamino)-N-[9-(4-hydroxy-3,5-dimethoxyphenyl)-8-oxo-5,5a,6,8,8a,9-hexahydrofuro[3′,4′:6,7]naphtho[2,3-d][1,3]dioxol-5-yl]acetamide] | 80 | 1.09 | 129 [10] % | solubility [3]: 100 mg/mL (≈ 190 mM); B16 Model Optimum T/Cvolume (%) [5]: 25% and 25 [20] %; MX-1 Model Optimum T/Cvolume (%) ([6]; Swiss Nude mice, s.c. MX-1, intraperitoneal on day 7, 9, 11, 14, 16 and 18, dose (mg/kg) in brackets): 51% and 51 [10] % |
| 209 | COc1cc(C2c3cc4c(cc3C(NC(=O)CNCCCNCCCCNCCCN)C3COC(=O)C23)OCO4)cc(OC)c1OC (stereo not drawn) (as salt: hydrochloride) | – | – | – | – |
| – | COc1cc(C2c3cc4c(cc3C(NC(=O)CN(C)C)C3COC(=O)C23)OCO4)cc(OC)c1O (stereo not drawn) [Example 12, 2-dlmethylamino-N-[9-(4-hydroxy-3,5-dimethoxyphenyl)-8-oxo-5,5a,6,8,8a,9-hexahydrofuro[3′,4′:6,7]naphtho[2,3-d][1,3]dioxol-5-yl]acetamide] | – | 2.32 | 157 [2.5] % | IC50 [1]: 200 nM; Solubility in water [3]: 16 mg/mL (≈ 33 mM) |
| – | COc1cc(C2c3cc4c(cc3C(NC(=O)CNCCCNCCCCNCCCN)C3COC(=O)C23)OCO4)cc(OC)c1O (stereo not drawn) [Example 27, 2-{3-[4-(3-aminopropylamino)butylamino]propylamino}-N-[9-(4-hydroxy-3,5-dimethoxyphenyl)-8-oxo-5,5a,6,8,8a,9-hexahydrofuro[3′,4′:6,7]naphtho[2,3-d][1,3]dioxol-5-yl]acetamide] | 200 | 1.22 | 129 [7.5] % | solubility [3]: 50 mg/mL (≈ 77.9 mM); effect on the tumour (in words) ([6]; MX-1, treatment of 2.5 mg/kg): complete eradication of the tumour |
| – | COc1cc(C2c3cc4c(cc3C(NC(=O)CNCCN(C)C)C3COC(=O)C23)OCO4)cc(OC)c1O (stereo not drawn) [Example 9, 2-(2-dimethylaminoethylamino)-N-[9-(4-hydroxy-3,5-dimethoxyphenyl)-8-oxo-5,5a,6,8,8a,9-hexahydrofuro[3′,4′:6,7]naphtho[2,3-d][1,3]dioxol-5-yl]acetamide] | 6000 | 2.81 | 157 [10] % | solubility [3]: 100 mg/mL (≈ 190 mM) |

| Compound | melting point [°C] | IC50 ([1]; Homo sapiens) [nM] | TM (mean Tail Moment with respect to the TM of etoposide, taken to be unity) [2] | P388 Model Optimum T/Csurvival (%) [4] | also measured |
| --- | --- | --- | --- | --- | --- |
| COc1cc(C2c3cc4c(cc3C(NC(=O)CN)C3COC(=O)C23)OCO4)cc(OC)c1O (stereo not drawn) (as salt: hydrochloride) [Example 22, 2-amino-N-[9-(4-hydroxy-3,5-dimethoxyphenyl)-8-oxo-5,5a,6,8,8a,9-hexahydrofuro[3′,4′:6,7]naphtho[2,3-d][1,3]dioxol-5-yl]acetamide] | 236 | – | – | – | – |
